# Experimental data from patent US20250163104A1, “MACROCYCLIC IMMUNOMODULATORS” (priority 2021, published 2025).
# Where a SMILES comes first, the peptide text is derived from it. Bridges are numbered along the chain shown (N, C = ends). [ ]: non-standard residue; d: D form. The star is where a group is joined. Phe(4-COOH) = N[C@@H](Cc1ccc(C(=O)O)cc1)C(=O)O; Bip = N[C@@H](Cc1ccc(-c2ccccc2)cc1)C(=O)O; Phe(3-F) = N[C@@H](Cc1cccc(F)c1)C(=O)O; Cit = NC(=O)NCCC[C@H](N)C(=O)O; Carboxymethyl = O=C(O)C*; Orn = NCCC[C@H](N)C(=O)O; Dab = NCC[C@H](N)C(=O)O; Dap = NC[C@H](N)C(=O)O
# Biological target: T1, human PD-1 / PD-L1-Ig binding on Jurkat cell line over-expressing human PD-1 (Jurkat-PD-1) (Homo sapiens, UniProt Q15116)
# T1 construct: expressed in transfected cells; host or cells: Jurkat
# T1 sequence (Q15116 25-288): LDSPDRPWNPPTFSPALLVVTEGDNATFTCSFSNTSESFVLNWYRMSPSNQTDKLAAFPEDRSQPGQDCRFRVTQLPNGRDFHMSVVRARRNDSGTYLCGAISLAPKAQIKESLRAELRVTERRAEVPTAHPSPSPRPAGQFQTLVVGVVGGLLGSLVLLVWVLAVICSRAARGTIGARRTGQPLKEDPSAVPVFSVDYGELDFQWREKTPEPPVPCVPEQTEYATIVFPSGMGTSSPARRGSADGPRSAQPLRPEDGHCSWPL
# Assay: Jurkat-PD-1 Cell Binding High-Content Screening Assay (CBA)
# Assay type: cell-based
# Conditions: Jurkat-PD-1 cells, PE-labeled PD-L1-Ig 20 nM final; read-out: Jurkat HPD1_PDL1 IC50
# Summary of the method: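 PE-PD-L1-Ig 20 nM final; cells in DMEM/10% FCS; cpd pre-incubation 2 h, 37° C; ligand 1 h; PFA fix + Hoechst 33342; high-content imaging read-out.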
row,Structure (SMILES),IC50 [nM]
1,CC(C)C[C@H]1NC(=O)[C@H](CCCN)NC(=O)[C@H](CCC(=O)O)NC(=O)[C@H](Cc2ccc(-c3ccccc3)cc2)NC(=O)[C@H](C(C)C)NC(=O)[C@H](Cc2c[nH]c3ccccc23)NC(=O)[C@H](CC(=O)O)NC(=O)[C@H](Cc2ccc(OCC(=O)O)cc2)NC(=O)[C@H](Cc2ccc(OCC(=O)O)cc2)NC(=O)CSC[C@@H](C(=O)N[C@@H](C)C(N)=O)NC(=O)[C@H]([C@@H](C)O)NC(=O)[C@H](C(C)C)NC(=O)[C@H](Cc2ccccc2)NC(=O)[C@H](CCN)NC1=O [Compound 1668] ({CH2CO}-Y(Carboxymethyl)Y(Carboxymethyl)DWV[Bip]E[Orn][dL][Dab]FVTCA-NH2; thioether N-14),48.7
2,CC[C@H](C)[C@@H]1NC(=O)[C@H](Cc2ccc(-c3ccccc3)cc2)NC(=O)[C@H](C(C)C)NC(=O)[C@H](Cc2c[nH]c3ccccc23)NC(=O)[C@H](CC(=O)O)NC(=O)[C@H](Cc2ccc(OCC(=O)O)cc2)NC(=O)[C@H](CN)NC(=O)CSC[C@@H](C(=O)N[C@@H](C)C(N)=O)NC(=O)[C@H]([C@@H](C)O)NC(=O)[C@H](C(C)C)NC(=O)[C@H](Cc2cccc(F)c2)NC(=O)[C@H](CCN)NC(=O)[C@@H](CC(C)C)NC(=O)[C@H](CCCN)NC1=O [Compound 1669] ({CH2CO}-[Dap]Y(Carboxymethyl)DWV[Bip]I[Orn][dL][Dab][Phe(3-F)]VTCA-NH2; thioether N-14),23.5
3,CC[C@H](C)[C@@H]1NC(=O)[C@H](Cc2ccc(-c3ccccc3)cc2)NC(=O)[C@H](C(C)C)NC(=O)[C@H](Cc2c[nH]c3ccccc23)NC(=O)[C@H](CC(=O)O)NC(=O)[C@H](Cc2ccc(C(=O)O)cc2)NC(=O)[C@H](Cc2ccc(OCC(=O)O)cc2)NC(=O)CSC[C@@H](C(=O)N[C@@H](C)C(N)=O)NC(=O)[C@H]([C@@H](C)O)NC(=O)[C@H](C(C)C)NC(=O)[C@H](Cc2cccc(F)c2)NC(=O)[C@H](CCN)NC(=O)[C@@H](CC(C)C)NC(=O)[C@H](CCCN)NC1=O [Compound 1670],13.9
4,CC[C@H](C)[C@@H]1NC(=O)[C@H](Cc2ccc(-c3ccccc3)cc2)NC(=O)[C@H](C(C)C)NC(=O)[C@H](Cc2c[nH]c3ccccc23)NC(=O)[C@H](CC(=O)O)NC(=O)[C@H](Cc2ccc(OCC(=O)O)cc2)NC(=O)[C@H](Cc2ccc(OCC(=O)O)cc2)NC(=O)CSC[C@@H](C(=O)N[C@@H](C)C(N)=O)NC(=O)[C@H]([C@@H](C)O)NC(=O)[C@H](C(C)C)NC(=O)[C@H](Cc2cccc(F)c2)NC(=O)[C@H](CCN)NC(=O)[C@@H](CC(C)C)NC(=O)[C@H](CCCN)NC1=O [Compound 1671] ({CH2CO}-Y(Carboxymethyl)Y(Carboxymethyl)DWV[Bip]I[Orn][dL][Dab][Phe(3-F)]VTCA-NH2; thioether N-14),22.9
5,CC(C)C[C@H]1NC(=O)[C@H](CCCN)NC(=O)[C@H](C(C)C)NC(=O)[C@H](Cc2ccc(-c3ccccc3)cc2)NC(=O)[C@H](C(C)C)NC(=O)[C@H](Cc2c[nH]c3ccccc23)NC(=O)[C@H](CC(=O)O)NC(=O)[C@H](Cc2ccc(OCC(=O)O)cc2)NC(=O)[C@H](CN)NC(=O)CSC[C@@H](C(=O)N[C@@H](C)C(N)=O)NC(=O)[C@H]([C@@H](C)O)NC(=O)[C@H](C(C)C)NC(=O)[C@H](Cc2cccc(F)c2)NC(=O)[C@H](CCN)NC1=O [Compound 1672] ({CH2CO}-[Dap]Y(Carboxymethyl)DWV[Bip]V[Orn][dL][Dab][Phe(3-F)]VTCA-NH2; thioether N-14),11.2
6,CC(C)C[C@H]1NC(=O)[C@H](CCCN)NC(=O)[C@H](C(C)C)NC(=O)[C@H](Cc2ccc(-c3ccccc3)cc2)NC(=O)[C@H](C(C)C)NC(=O)[C@H](Cc2c[nH]c3ccccc23)NC(=O)[C@H](CC(=O)O)NC(=O)[C@H](Cc2ccc(C(=O)O)cc2)NC(=O)[C@H](Cc2ccc(OCC(=O)O)cc2)NC(=O)CSC[C@@H](C(=O)N[C@@H](C)C(N)=O)NC(=O)[C@H]([C@@H](C)O)NC(=O)[C@H](C(C)C)NC(=O)[C@H](Cc2cccc(F)c2)NC(=O)[C@H](CCN)NC1=O [Compound 1673],13.6
7,CC(C)C[C@H]1NC(=O)[C@H](CCCN)NC(=O)[C@H](C(C)C)NC(=O)[C@H](Cc2ccc(-c3ccccc3)cc2)NC(=O)[C@H](C(C)C)NC(=O)[C@H](Cc2c[nH]c3ccccc23)NC(=O)[C@H](CC(=O)O)NC(=O)[C@H](Cc2ccc(OCC(=O)O)cc2)NC(=O)[C@H](Cc2ccc(OCC(=O)O)cc2)NC(=O)CSC[C@@H](C(=O)N[C@@H](C)C(N)=O)NC(=O)[C@H]([C@@H](C)O)NC(=O)[C@H](C(C)C)NC(=O)[C@H](Cc2cccc(F)c2)NC(=O)[C@H](CCN)NC1=O [Compound 1674] ({CH2CO}-Y(Carboxymethyl)Y(Carboxymethyl)DWV[Bip]V[Orn][dL][Dab][Phe(3-F)]VTCA-NH2; thioether N-14),16.9
8,CC(C)C[C@H]1NC(=O)[C@H](CCCN)NC(=O)[C@H](CCCNC(N)=O)NC(=O)[C@H](Cc2ccc(-c3ccccc3)cc2)NC(=O)[C@H](C(C)C)NC(=O)[C@H](Cc2c[nH]c3ccccc23)NC(=O)[C@H](CC(=O)O)NC(=O)[C@H](Cc2ccc(C(=O)O)cc2)NC(=O)[C@H](Cc2ccc(OCC(=O)O)cc2)NC(=O)CSC[C@@H](C(=O)N[C@@H](C)C(N)=O)NC(=O)[C@H]([C@@H](C)O)NC(=O)[C@H](C(C)C)NC(=O)[C@H](Cc2cccc(F)c2)NC(=O)[C@H](CCN)NC1=O [Compound 1675] ({CH2CO}-Y(Carboxymethyl)[Phe(4-COOH)]DWV[Bip][Cit][Orn][dL][Dab][Phe(3-F)]VTCA-NH2; thioether N-14),20.9
9,CC(C)C[C@H]1NC(=O)[C@H](CCCN)NC(=O)[C@H](CCCNC(N)=O)NC(=O)[C@H](Cc2ccc(-c3ccccc3)cc2)NC(=O)[C@H](C(C)C)NC(=O)[C@H](Cc2c[nH]c3ccccc23)NC(=O)[C@H](CC(=O)O)NC(=O)[C@H](Cc2ccc(OCC(=O)O)cc2)NC(=O)[C@H](Cc2ccc(OCC(=O)O)cc2)NC(=O)CSC[C@@H](C(=O)N[C@@H](C)C(N)=O)NC(=O)[C@H]([C@@H](C)O)NC(=O)[C@H](C(C)C)NC(=O)[C@H](Cc2cccc(F)c2)NC(=O)[C@H](CCN)NC1=O [Compound 1676] ({CH2CO}-Y(Carboxymethyl)Y(Carboxymethyl)DWV[Bip][Cit][Orn][dL][Dab][Phe(3-F)]VTCA-NH2; thioether N-14),22.2
10,CC(C)C[C@H]1NC(=O)[C@H](CCCN)NC(=O)[C@H](CCC(=O)O)NC(=O)[C@H](Cc2ccc(-c3ccccc3)cc2)NC(=O)[C@H](C(C)C)NC(=O)[C@H](Cc2c[nH]c3ccccc23)NC(=O)[C@H](CC(=O)O)NC(=O)[C@H](Cc2ccc(OCC(=O)O)cc2)NC(=O)[C@H](CN)NC(=O)CSC[C@@H](C(=O)N[C@@H](C)C(N)=O)NC(=O)[C@H]([C@@H](C)O)NC(=O)[C@H](C(C)C)NC(=O)[C@H](Cc2cccc(F)c2)NC(=O)[C@H](CCN)NC1=O [Compound 1677] ({CH2CO}-[Dap]Y(Carboxymethyl)DWV[Bip]E[Orn][dL][Dab][Phe(3-F)]VTCA-NH2; thioether N-14),21.1
11,CC[C@H](C)[C@@H]1NC(=O)[C@H](Cc2ccc(-c3ccccc3)cc2)NC(=O)[C@H](C(C)C)NC(=O)[C@H](Cc2c[nH]c3ccccc23)NC(=O)[C@H](CC(=O)O)NC(=O)[C@H](Cc2ccc(OCC(=O)O)cc2)NC(=O)[C@H](CN)NC(=O)CSC[C@@H](C(=O)N[C@@H](C)C(N)=O)NC(=O)[C@H]([C@@H](C)O)NC(=O)[C@H](C(C)C)NC(=O)[C@H](Cc2ccc(O)cc2)NC(=O)[C@H](CCN)NC(=O)[C@@H](CC(C)C)NC(=O)[C@H](CCCN)NC1=O [Compound 1678] ({CH2CO}-[Dap]Y(Carboxymethyl)DWV[Bip]I[Orn][dL][Dab]YVTCA-NH2; thioether N-14),52
12,CC[C@H](C)[C@@H]1NC(=O)[C@H](Cc2ccc(-c3ccccc3)cc2)NC(=O)[C@H](C(C)C)NC(=O)[C@H](Cc2c[nH]c3ccccc23)NC(=O)[C@H](CC(=O)O)NC(=O)[C@H](Cc2ccc(C(=O)O)cc2)NC(=O)[C@H](Cc2ccc(OCC(=O)O)cc2)NC(=O)CSC[C@@H](C(=O)N[C@@H](C)C(N)=O)NC(=O)[C@H]([C@@H](C)O)NC(=O)[C@H](C(C)C)NC(=O)[C@H](Cc2ccc(O)cc2)NC(=O)[C@H](CCN)NC(=O)[C@@H](CC(C)C)NC(=O)[C@H](CCCN)NC1=O [Compound 1679] ({CH2CO}-Y(Carboxymethyl)[Phe(4-COOH)]DWV[Bip]I[Orn][dL][Dab]YVTCA-NH2; thioether N-14),92.2
13,CC[C@H](C)[C@@H]1NC(=O)[C@H](Cc2ccc(-c3ccccc3)cc2)NC(=O)[C@H](C(C)C)NC(=O)[C@H](Cc2c[nH]c3ccccc23)NC(=O)[C@H](CC(=O)O)NC(=O)[C@H](Cc2ccc(OCC(=O)O)cc2)NC(=O)[C@H](Cc2ccc(OCC(=O)O)cc2)NC(=O)CSC[C@@H](C(=O)N[C@@H](C)C(N)=O)NC(=O)[C@H]([C@@H](C)O)NC(=O)[C@H](C(C)C)NC(=O)[C@H](Cc2ccc(O)cc2)NC(=O)[C@H](CCN)NC(=O)[C@@H](CC(C)C)NC(=O)[C@H](CCCN)NC1=O [Compound 1680] ({CH2CO}-Y(Carboxymethyl)Y(Carboxymethyl)DWV[Bip]I[Orn][dL][Dab]YVTCA-NH2; thioether N-14),71.7
14,CC(C)C[C@H]1NC(=O)[C@H](CCCN)NC(=O)[C@H](C(C)C)NC(=O)[C@H](Cc2ccc(-c3ccccc3)cc2)NC(=O)[C@H](C(C)C)NC(=O)[C@H](Cc2c[nH]c3ccccc23)NC(=O)[C@H](CC(=O)O)NC(=O)[C@H](Cc2ccc(OCC(=O)O)cc2)NC(=O)[C@H](CN)NC(=O)CSC[C@@H](C(=O)N[C@@H](C)C(N)=O)NC(=O)[C@H]([C@@H](C)O)NC(=O)[C@H](C(C)C)NC(=O)[C@H](Cc2ccc(O)cc2)NC(=O)[C@H](CCN)NC1=O [Compound 1681] ({CH2CO}-[Dap]Y(Carboxymethyl)DWV[Bip]V[Orn][dL][Dab]YVTCA-NH2; thioether N-14),48.9
